Assay results from patent US10550102B2, “Indane and indoline derivatives and the use thereof as soluble guanylate cyclase activators” (NOVARTIS AG, priority 2014, dated 2020).

These molecules were tested against soluble guanylate cyclase (human GUCYA3 and GUCYB3) overexpressed in CHO cells (Homo sapiens (Human), UniProt Q02108+Q02153) (assay: CHO cellular assay (cGMP production, Cisbio cGMP HTRF kit)). Conditions: CHO GUCY clone 8E10, cGMP production, assay buffer with 1 mM IBMX and 20 uM ODQ, 1 h room temperature; minimum quantification limit 0.5 nM (listed 0.5 nM means ≤0.5 nM); read-out: EC50.
soluble guanylate cyclase (human GUCYA3 and GUCYB3) overexpressed in CHO cells, sequence (Q02108 whole entry partner): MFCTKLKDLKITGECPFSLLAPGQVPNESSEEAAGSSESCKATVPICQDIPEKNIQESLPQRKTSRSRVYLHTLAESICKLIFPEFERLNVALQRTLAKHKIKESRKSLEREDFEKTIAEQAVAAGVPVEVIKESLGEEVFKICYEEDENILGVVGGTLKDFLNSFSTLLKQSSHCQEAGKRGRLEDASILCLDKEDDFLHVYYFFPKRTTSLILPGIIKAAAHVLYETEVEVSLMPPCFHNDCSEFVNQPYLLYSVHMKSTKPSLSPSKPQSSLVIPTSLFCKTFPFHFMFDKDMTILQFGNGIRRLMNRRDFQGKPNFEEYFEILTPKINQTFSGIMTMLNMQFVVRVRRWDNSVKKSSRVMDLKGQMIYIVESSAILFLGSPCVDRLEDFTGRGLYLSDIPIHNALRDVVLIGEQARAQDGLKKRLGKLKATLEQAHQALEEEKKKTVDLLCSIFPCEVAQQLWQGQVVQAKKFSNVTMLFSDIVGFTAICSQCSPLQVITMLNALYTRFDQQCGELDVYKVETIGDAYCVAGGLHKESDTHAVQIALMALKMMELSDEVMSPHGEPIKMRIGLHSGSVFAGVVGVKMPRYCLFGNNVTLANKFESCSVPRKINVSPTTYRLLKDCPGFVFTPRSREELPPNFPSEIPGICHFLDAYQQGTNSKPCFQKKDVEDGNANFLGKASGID
soluble guanylate cyclase (human GUCYA3 and GUCYB3) overexpressed in CHO cells, sequence (Q02153 whole entry): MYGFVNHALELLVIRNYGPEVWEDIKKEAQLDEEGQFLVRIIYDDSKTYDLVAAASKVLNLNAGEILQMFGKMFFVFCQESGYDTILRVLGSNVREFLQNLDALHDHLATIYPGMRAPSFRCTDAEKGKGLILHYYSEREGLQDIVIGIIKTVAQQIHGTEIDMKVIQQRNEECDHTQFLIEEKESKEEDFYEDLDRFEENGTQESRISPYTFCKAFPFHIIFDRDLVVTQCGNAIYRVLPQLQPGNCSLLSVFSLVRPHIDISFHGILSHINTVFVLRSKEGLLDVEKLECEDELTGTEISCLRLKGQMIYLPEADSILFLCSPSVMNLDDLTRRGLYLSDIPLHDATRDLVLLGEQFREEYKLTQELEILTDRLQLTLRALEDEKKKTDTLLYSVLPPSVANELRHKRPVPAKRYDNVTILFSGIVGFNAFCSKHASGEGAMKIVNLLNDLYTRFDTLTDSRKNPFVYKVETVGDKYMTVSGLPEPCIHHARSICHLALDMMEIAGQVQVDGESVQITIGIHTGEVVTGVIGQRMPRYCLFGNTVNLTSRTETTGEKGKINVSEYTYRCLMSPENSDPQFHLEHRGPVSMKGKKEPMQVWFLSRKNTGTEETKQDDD
Type: cell-based
In short: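 Stable CHO-K1 clone 8E10 expressing human sGC (GUCYA3/GUCYB3), 3000 cells/well, exposed 1 h at room temperature to activators in HBSS, 0.1% BSA, 1 mM IBMX, 20 uM ODQ, 0.5% DMSO final. cGMP was measured by HTRF and interpolated from a standard curve. EC50 came from a 4-parameter sigmoidal fit.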

EC50	Structure (SMILES)
≤ 0.5 nM	CCc1cc(NC2CCc3cccc(-c4cccc(-n5ncc(C(=O)O)c5CC)n4)c32)ccc1C1CCN(C(=O)[C@H](C)O)CC1 (single isomer, unassigned; (+)) [Example 48a]
≤ 0.5 nM	CCC[C@H](O)C(=O)N1CCC(c2ccc(NC3CCc4cccc(-c5cccc(-n6ncc(C(=O)O)c6CC)n5)c43)cc2CC)CC1 (single isomer, unassigned; (+)) [Example 49a]
≤ 0.5 nM	CCc1cc(NC2CCc3cccc(-c4cccc(-n5ncc(C(=O)O)c5CC)n4)c32)ccc1C1CCN(C(=O)[C@@H](O)CC)CC1 (single isomer, unassigned; (+)) [Example 50a]
≤ 0.5 nM	CCc1cc(NC2CCc3cccc(-c4cccc(-n5ncc(C(=O)O)c5CC)n4)c32)ccc1C1CCN(C(=O)OC(C)C)CC1 (single isomer, unassigned; (+)) [Example 51a]
≤ 0.5 nM	Cc1cc(C2CCN(C(=O)C3CC3)CC2)ccc1NC1CCc2cccc(-c3cccc(-n4ncc(C(=O)O)c4C(F)F)c3)c21 (single isomer, unassigned; (+)) [Example 55-2, (+)-1-(3-(3-((4-(1-(Cyclopropanecarbonyl)piperidin-4-yl)-2-methylphenyl)amino)-2,3-dihydro-1H-inden-4-yl)phenyl)-5-(difluoromethyl)-1H-pyrazole-4-carboxylic acid]
1 nM	Cc1cc(C2CCN(C(=O)CO)CC2)ccc1NC1CCc2cccc(-c3cccc(-n4ncc(C(=O)O)c4C(F)(F)F)c3)c21 (single isomer, unassigned; (+)) [Example 56]
1 nM	Cc1cc(C2CCN(C(=O)C3CC3)CC2)ccc1NC1CCc2cccc(-c3cccc(-n4ncc(C(=O)O)c4CC(F)(F)F)n3)c21 (single isomer, unassigned; (+)) [Example 57, (+)-1-(6-(3-((4-(1-(Cyclopropanecarbonyl)piperidin-4-yl)-2-methylphenyl)amino)-2,3-dihydro-1H-inden-4-yl)pyridin-2-yl)-6-(2,2,2-trifluoroethyl)-1H-pyrazole-4-carboxylic Acid]
2 nM	CCc1nc(NC2CCc3cccc(-c4cccc(-n5ncc(C(=O)O)c5CC)n4)c32)ccc1C1CCN(C(=O)C2CC2)CC1 (single isomer, unassigned; (+)) [Example 63a, (+)-1-(6-(3-((5-(1-(Cyclopropanecarbonyl)piperidin-4-yl)-6-ethylpyridin-2-yl)amino)-2,3-dihydro-1H-inden-4-yl)pyridin-2-yl)-5-ethyl-1H-pyrazole-4-carboxylic Acid]
≤ 0.5 nM	Cc1cc(C2CCN(C(=O)C3CC3)CC2)ccc1OC1CCc2cccc(-c3cccc(-n4ncc(C(=O)O)c4C(F)(F)F)c3)c21 (single isomer, unassigned; (+)) [Example (+)-1. b), (+)-1-(3-(3-(4-(1-(cyclopropanecarbonyl)piperidin-4-yl)-2-methylphenoxy)-2,3-dihydro-1H-inden-4-yl)phenyl)-5-(trifluoromethyl)-1H-pyrazole-4-carboxylic acid]
≤ 0.5 nM	Cc1cc(C2CCN(C(=O)C3CC3)CC2)ccc1NC1CCc2cccc(-c3cccc(-n4ncc(C(=O)O)c4C(F)(F)F)n3)c21 (single isomer, unassigned; (+)) [Example (+)-8. b), (+)-1-(6-(3-((4-(1-(cyclopropanecarbonyl)piperidin-4-yl)-2-methylphenyl)amino)-2,3-dihydro-1H-inden-4-yl)pyridin-2-yl)-5-(trifluoromethyl)-1H-pyrazole-4-carboxylic acid]
17 nM	CCc1cc(CC2CCc3cccc(-c4cccc(-n5ncc(C(=O)O)c5CC)n4)c32)ccc1C1CCN(C(=O)C2CC2)CC1 (single isomer, unassigned; (-)) [38-1 (−), (−)-1-(6-(3-(4-(1-(cyclopropanecarbonyl)piperidin-4-yl)-3-ethylbenzyl)-2,3-dihydro-1H-inden-4-yl)pyridin-2-yl)-5-ethyl-1H-pyrazole-4-carboxylic acid]
9 nM	CCc1cc(CC2CCc3cccc(-c4cccc(-n5ncc(C(=O)O)c5C)n4)c32)ccc1C1CCN(C(=O)C2CC2)CC1 (single isomer, unassigned; (-)) [38-2 (−), (−)-1-(6-(3-(4-(1-(cyclopropanecarbonyl)piperidin-4-yl)-3-ethylbenzyl)-2,3-dihydro-1H-inden-4-yl)pyridin-2-yl)-5-methyl-1H-pyrazole-4-carboxylic acid]
33 nM	CCc1c(C(=O)O)cnn1-c1cccc(-c2cccc3c2C(Cc2ccc(C4CCN(C(=O)C5CC5)CC4)cc2C)CC3)n1 (single isomer, unassigned; (-)) [38-3 (−), (−)-1-(6-(3-(4-(1-(cyclopropanecarbonyl)piperidin-4-yl)-2-methylbenzyl)-2,3-dihydro-1H-inden-4-yl)pyridin-2-yl)-5-ethyl-1H-pyrazole-4-carboxylic acid]
15 nM	CCC[C@H](O)C(=O)N1CCC(c2ccc(CC3CCc4cccc(-c5cccc(-n6ncc(C(=O)O)c6CC)n5)c43)cc2CC)CC1 (single isomer, unassigned; (-)) [40-1 (−)]
25 nM	CCc1c(C(=O)O)cnn1-c1cccc(-c2cccc3c2C(Cc2ccc(C4CCN(C(=O)[C@H](C)O)CC4)cc2C)CC3)n1 (single isomer, unassigned; (-)) [40-2 (−)]
49 nM	CCC[C@H](O)C(=O)N1CCC(c2ccc(CC3CCc4cccc(-c5cccc(-n6ncc(C(=O)O)c6CC)n5)c43)c(C)c2)CC1 (single isomer, unassigned; (-)) [40-3 (−)]
23 nM	Cc1cc2c(c(-c3cccc(-n4ncc(C(=O)O)c4C(F)(F)F)n3)c1)C(Nc1ccc(C3CCN(C(=O)C4CC4)CC3)cc1C)CC2 (single isomer, unassigned; (-)) [43 (−), (−)-1-(6-(3-((4-(1-(Cyclopropanecarbonyl)piperidin-4-yl)-2-methylphenyl)amino)-6-methyl-2,3-dihydro-1H-inden-4-yl)pyridin-2-yl)-5-(trifluoromethyl)-1H-pyrazole-4-carboxylic acid]
9.9 nM	Cc1cc(C2CCN(C(=O)C3CC3)CC2)ccc1NC1CCc2cccc(-c3cccc(-n4ncc(C(=O)O)c4C)c3)c21 (single isomer, unassigned; (-)) [44 (−), (−)-1-(3-(3-((4-(1-(cyclopropanecarbonyl)piperidin-4-yl)-2-methylphenyl)amino)-2,3-dihydro-1H-inden-4-yl)phenyl)-5-methyl-1H-pyrazole-4-carboxylic acid]
168 nM	Cc1cc(C2CCN(C(=O)C3CC3)CC2)ccc1CC1CCc2cccc(-c3cccc(-n4ncc(C(=O)O)c4C)c3)c21 (single isomer, unassigned; (-)) [54. b). (−), (−)-1-(3-(3-(4-(1-(cyclopropanecarbonyl)piperidin-4-yl)-2-methylbenzyl)-2,3-dihydro-1H-inden-4-yl)phenyl)-5-methyl-1H-pyrazole-4-carboxylic acid]
15 nM	CCc1cc(CC2CCc3cccc(-c4cccc(-n5ncc(C(=O)O)c5C)c4)c32)ccc1C1CCN(C(=O)C2CC2)CC1 (single isomer, unassigned; (-)) [55-1 (−), (−)-1-(3-(3-(4-(1-(cyclopropanecarbonyl)piperidin-4-yl)-3-ethylbenzyl)-2,3-dihydro-1H-inden-4-yl)phenyl)-5-methyl-1H-pyrazole-4-carboxylic acid]
